This test concerns hepatitis C virus replicon NK-R2AN in Huh-7 cells. Nature of the test: microbe, parasite or virus in culture. The format is cell-based. The following applies: Huh-7 cells containing replicon NK-R2AN, 48 hours, renilla luciferase activity relative to protein amount, read-out: HCV replicon inhibitory activity (EC50).

These results are taken from patent US7816351B2, “5,6-dimethylthieno[2,3-di] pyrimidine derivatives, the preparation method thereof and the pharmaceutical composition comprising the same for anti-virus” (Equispharm Co., Ltd, priority 2005, dated 2010).

Each structure is given as a SMILES string.

Regarding `Cc1sc2nc(N3CCN(C(=O)c4ccccn4)CC3)nc(Nc3ccc(N4CCOCC4)cc3)c2c1C` [Example 1, 4-[5,6-dimethyl-4-(4-morpholin-4-yl-phenylamino)-thieno[2,3-d]pyrimidin-2-yl]-piperazin-1-yl-pyridin-2-yl-methanone], the EC50 came to 680 nM.

`Cc1sc2nc(N3CCN(C(=O)c4cccnc4)CC3)nc(Nc3ccc(N4CCOCC4)cc3)c2c1C` [Example 2, 4-[5,6-dimethyl-4-(4-morpholin-4-yl-phenylamino)-thieno[2,3-d]pyrimidin-2-yl]-piperazin-1-yl-pyridin-3-yl-methanone]: the EC50 was determined as 450 nM.

For the compound `Cc1sc2nc(N3CCN(C(=O)c4ccncc4)CC3)nc(Nc3ccc(N4CCOCC4)cc3)c2c1C` [Example 3, 4-[5,6-dimethyl-4-(4-morpholin-4-yl-phenylamino)-thieno[2,3-d]pyrimidin-2-yl]-piperazin-1-yl-pyridin-4-yl-methanone], the EC50 is 480 nM.

Turning to `Cc1sc2nc(N3CCN(C(=O)c4ccccn4)CC3)nc(Nc3ccc(N4CCOCC4)nc3)c2c1C` [Example 4, 4-[5,6-dimethyl-4-(6-morpholinopyridin-3-ylamino)-thieno[2,3-d]pyrimidin-2-yl]-piperazin-1-yl-pyridin-2-yl-methanone], the EC50 turned out to be 710 nM.

Regarding `Cc1sc2nc(N3CCN(C(=O)c4cccnc4)CC3)nc(Nc3ccc(N4CCOCC4)nc3)c2c1C` [Example 5, 4-[5,6-dimethyl-4-(6-morpholinopyridin-3-ylamino)-thieno[2,3-d]pyrimidin-2-yl]-piperazin-1-yl-pyridin-3-yl-methanone], the 50% effective concentration (EC50) was found to be 510 nM.
